{"source": "paper PMC3689833", "about": "“Neurochemical Changes in the Mouse Hippocampus Underlying the Antidepressant Effect of Genetic Deletion of P2X7 Receptors” (PLoS ONE, 2013)", "tested_on": "acute hippocampal slices", "test": "[3H]Glutamate and endogenous glutamate release from acute hippocampal slices", "type": "cell-based, mouse", "conditions": "P2rx7−/− slices, ATP 10 mM, antagonist 100 nM 15 min before ATP", "procedure": "The [^3H]Glu release experiments were conducted using the method described in our previous papers. Briefly, the mice were anaesthetized under light CO2 inhalation, and subsequently decapitated. The hippocampus was dissected from each mouse in ice-cold Krebs solution saturated with 95% O2 and 5% CO2, sectioned (400-µm-thick slices) using a McIlwain tissue chopper and incubated in 1 ml of modified Krebs solution (113 mM NaCl, 4.7 mM KCl, 2.5 mM CaCl2, 1.2 mM KH2PO4, 1.2 mM MgSO4, 25.0 mM NaHCO3, and 11.5 mM glucose), pH 7.4, in the presence of 5 µCi/ml [^3H]glutamic acid ([^3H]Glu, 9.8×10^−8 M, specific activity 51 Ci/mmol; Perkin Elmer) for 45 min. The medium was bubbled with 95% O2 and 5% CO2 and maintained at 32°C. After loading, the slices were continuously superfused with 95% O2 and 5% CO2-saturated modified Krebs solution (flow rate: 0.7 ml/min).\nSubsequently, the perfused samples were collected over a 3-min period and measured for tritium content. At 6 min after the start of the collection, the slices were subjected to a 6-min perfusion of the agonist (ATP) at various concentrations (1, 3, 6 and 10 mM) and then changed to normal Krebs solution until the end of the collection period. In some experiments, the P2X1 receptor antagonist, NF449 (100 nM), or the selective P2rx7 antagonist Brilliant blue G (100 nM) was applied to the perfusion solution at 15 min before the beginning of the ATP perfusion.\nThe radioactivity released from the preparations was measured using a Packard 1900 Tricarb liquid scintillation spectrometer, using Ultima Gold Scintillation cocktail. The release of tritium was expressed as a percentage of the amount of radioactivity in the tissue at the sample collection time (fractional release). The tritium uptake in the tissue was determined as the sum of release+the tissue content after the experiment and expressed in Bq/g. For the evaluation of the basal tritium outflow the fractional release measured in four consecutive 3 min samples under drug free conditions were taken into account. The ATP-induced [^3H]Glu efflux calculated as the net release in response to the respective stimulus by subtracting the release before the stimulation from the values measured after stimulation. Selected samples collected under resting conditions and during the peak of the ATP-evoked response were subjected to further HPLC analyses.\nThe separation of pre-column dansylated amino acids was performed using a gradient elution-working mode at ambient temperature. The mobile phase A consisted of 5/95 (v/v) 78/22 acetonitrile/methanol in 15 mM ammonium formate buffer, and the mobile phase B was composed of 90/10 (v/v 78/22) acetonitrile/methanol in ammonium formate buffer, pH 3.7. The mobile phase B increased linearly (at 0.11 min to 50% 17 min to 72% and 26 min to 100%, followed by a final run to 54 min), the flow rate was 0.7 ml/min. The analytical and the trap column were equilibrated for 10 min, and enrichment and clean-up procedures were performed. The dansylated derivatives were detected using an absorbance detector (Agilent 1100) at a 319 nm wavelength. The retention time of the dansylated Glu was 11.4 min. Pre-column derivatization was performed by mixing 50 µl of dansyl chloride prepared by dissolving 5 mg 5-(dimethylamino)naphthalene-1-sulfonyl chloride in acetonitrile daily and adding 50 µl of 2 M sodium carbonate, which contained norvaline (20 µM) as an internal standard in 25 µl of sample. After a 10-min reaction time at 60°C, the mixture was acidified using 25 µl of 6 M formic acid and injected onto the “trap-column”."}
{"smiles": "CCOc1ccc(Nc2ccc(/C(=C3C=C/C(=[N+](/CC)Cc4cccc(S(=O)(=O)[O-])c4)C=C/3C)c3ccc(N(CC)Cc4cccc(S(=O)(=O)O)c4)cc3C)cc2)cc1", "note": "[BBG, Brilliant blue G]", "values": [{"measurement": "residual ATP-evoked [3H]Glu efflux in presence of antagonist", "result": "0.56±0.25", "unit": "%"}]}
